Laboratory results reported in publication PMC7587356, “High-Throughput Screening for Inhibitors of the SARS-CoV-2 Protease Using a FRET-Biosensor” (Molecules, 2020).
Where a name gives a salt, the structure may show the parent alone. Read-outs that look alike come from different tables or passages of the source.

Target: SARS-CoV-2 3CLpro (Severe acute respiratory syndrome coronavirus 2, UniProt P0DTD1)
Test: biochemical
Assay type: biochemical
Design: Replicate_1 / Replicate_2 / mean / mean (LOPAC_screen_w_protease): unit not given here
Settings: for inhibition at 5 µM: 4 h; for mean (LOPAC screen with protease) / Replicate_1 (LOPAC screen with protease) / Replicate_2 (LOPAC screen with protease): primary screen at 5 µM
[1] = sheet LOPAC_screen_w_protease, primary screen of LOPAC1280 at 5 µM with protease, mean of the two replicates
[2] = sheet LOPAC_screen_w_protease, primary screen of LOPAC1280 at 5 µM with protease, replicate 1
[3] = sheet LOPAC_screen_w_protease, primary screen of LOPAC1280 at 5 µM with protease, replicate 2
[4] = sheet LOPAC_screen_w_protease, primary screen with protease, 5 µM, mean of two replicates
[5] = sheet LOPAC_screen_w_protease, primary screen with protease, 5 µM, replicate 1
[6] = sheet LOPAC_screen_w_protease, primary screen with protease, 5 µM, replicate 2
[7] = sheet LOPAC_screen_w_protease, primary screen of LOPAC1280 at 5 µM with protease, mean of the two replicates, read-out: mean
[8] = sheet LOPAC_screen_w_protease, primary screen of LOPAC1280 at 5 µM with protease, replicate 1, read-out: Replicate_1
[9] = sheet LOPAC_screen_w_protease, primary screen of LOPAC1280 at 5 µM with protease, replicate 2, read-out: Replicate_2
[10] = read-out: Replicate_1 (LOPAC_screen_w_protease)
[11] = read-out: Replicate_2 (LOPAC_screen_w_protease)
[12] = sheet LOPAC_screen_w_protease, primary screen with protease, 5 µM, mean of two replicates, read-out: mean
[13] = sheet LOPAC_screen_w_protease, primary screen with protease, 5 µM, replicate 1, read-out: Replicate_1
[14] = sheet LOPAC_screen_w_protease, primary screen with protease, 5 µM, replicate 2, read-out: Replicate_2
[15] = sheet LOPAC_screen_w_protease, LOPAC1280 at 5 µM, mean of two replicates, read-out: mean
[16] = sheet LOPAC_screen_w_protease, LOPAC1280 at 5 µM, replicate 1, read-out: Replicate_1
[17] = sheet LOPAC_screen_w_protease, LOPAC1280 at 5 µM, replicate 2, read-out: Replicate_2
[18] = sheet LOPAC_screen_w_protease, mean of two replicates
[19] = sheet LOPAC_screen_w_protease, replicate 1
[20] = sheet LOPAC_screen_w_protease, replicate 2
[21] = sheet LOPAC_screen_w_protease, primary screen with protease, compound at 5 µM, mean of two replicates
[22] = sheet LOPAC_screen_w_protease, primary screen with protease, compound at 5 µM, replicate 1
[23] = sheet LOPAC_screen_w_protease, primary screen with protease, compound at 5 µM, replicate 2
[24] = LOPAC1280 primary screen with protease, 5 µM compound, mean of the two replicates
[25] = LOPAC1280 primary screen with protease, 5 µM compound, replicate 1
[26] = LOPAC1280 primary screen with protease, 5 µM compound, replicate 2
[27] = sheet LOPAC_screen_w_protease, LOPAC1280 primary screen at 5 µM, with protease, replicate 1
[28] = sheet LOPAC_screen_w_protease, LOPAC1280 primary screen at 5 µM, with protease, replicate 2

`N#C/C(=C\c1ccc(O)c(O)c1)C(=O)NCCCc1ccccc1` [Tyrphostin AG 555] was tested, and the mean [1] was 3.848, the Replicate_1 [2] was 4.708 and the Replicate_2 [3] was 2.988.
`Cl.O=c1[nH]oc2c1CCNC2` [THIP hydrochloride] was tested, and the mean [4] was -0.005768, the Replicate_1 [5] was -0.552 and the Replicate_2 [6] was 0.5405.
With `CC(=O)c1ccc(S(=O)(=O)NC(=O)NC2CCCCC2)cc1` [Acetohexamide] the inhibition at 5 µM [7] was 3.3%, the inhibition at 5 µM [8] was 2.5% and the inhibition at 5 µM [9] was 4.1%.
For `CNCCCN1c2ccccc2CCc2ccccc21` [Desipramine hydrochloride], the “mean (LOPAC_screen_w_protease)” value was 1.646, the inhibition at 5 µM [10] was 1.71% and the inhibition at 5 µM [11] was 1.58%.
`O=C(O)c1cc(=O)c2c(Cl)cc(Cl)cc2[nH]1` [5,7-Dichlorokynurenic acid] was tested, and the mean [1] was 3.519, the Replicate_1 [2] was 3.053 and the Replicate_2 [3] was 3.985.
Work on `Nc1ccc(S(=O)(=O)Nc2ccnn2-c2ccccc2)cc1` [Sulfaphenazole] yielded an inhibition at 5 µM [12] of 0.0259%, an inhibition at 5 µM [13] of 0.159% and an inhibition at 5 µM [14] of -0.107%.
In the case of `C[C@]12CCC(=O)C=C1CC[C@@H]1[C@@H]2CC[C@@]2(C)[C@H]1CC[C@]2(O)C(=O)CO` [Cortexolone], the inhibition at 5 µM [15] was 1.01%, the inhibition at 5 µM [16] was 2.17% and the inhibition at 5 µM [17] was -0.141%.
With `C=CCN1CC[C@]23c4c5ccc(O)c4O[C@@H]2/C(=N/N=C2\CC[C@@]4(O)C6Cc7ccc(O)c8c7[C@@]4(CCN6CC=C)[C@@H]2O8)CC[C@@]3(O)C1C5.Cl.Cl` [Naloxonazine dihydrochloride] the “mean (LOPAC screen with protease)” value [18] was 7.252, the “Replicate_1 (LOPAC screen with protease)” value [19] was 6.395 and the “Replicate_2 (LOPAC screen with protease)” value [20] was 8.109.
`CC1(C)NC(=O)N(c2ccc([N+](=O)[O-])c(C(F)(F)F)c2)C1=O` [Nilutamide] gave an inhibition at 5 µM (sheet LOPAC_screen_w_protease, LOPAC1280 primary screen at 5 µM, with protease, mean of the two replicates, read-out: mean) of 0.761%, an inhibition at 5 µM (sheet LOPAC_screen_w_protease, LOPAC1280 primary screen at 5 µM, with protease, replicate 1, read-out: Replicate_1) of 2.22% and an inhibition at 5 µM (sheet LOPAC_screen_w_protease, LOPAC1280 primary screen at 5 µM, with protease, replicate 2, read-out: Replicate_2) of -0.697%.
`C[Se]C[C@H](N)C(=O)O.Cl` [Se-(methyl)selenocysteine hydrochloride] was tested, and the “mean (LOPAC screen with protease)” value [18] was 12.3582, the “Replicate_1 (LOPAC screen with protease)” value [19] was 13.6627 and the “Replicate_2 (LOPAC screen with protease)” value [20] was 11.0537.
In the case of `CN(C)C/C=C(/c1ccc(Br)cc1)c1cccnc1` [Zimelidine dihydrochloride], the inhibition at 5 µM [15] was 0.989%, the inhibition at 5 µM [16] was 1.05% and the inhibition at 5 µM [17] was 0.928%.
`CCn1cc(C(=O)O)c(=O)c2cc3c(cc21)OCO3` [Oxolinic acid] gave an inhibition at 5 µM [7] of 3.24%, an inhibition at 5 µM [8] of 3.47% and an inhibition at 5 µM [9] of 3%.
`CN1CCN(C2=Nc3ccccc3Oc3ccc(Cl)cc32)CC1` [Loxapine succinate] gave an inhibition at 5 µM [12] of -0.686%, an inhibition at 5 µM [13] of -0.577% and an inhibition at 5 µM [14] of -0.795%.
For `N=C(NCCC[C@H](N)C(=O)O)N[N+](=O)[O-]` [NG-Nitro-L-arginine], the inhibition at 5 µM [7] was 3.68%, the inhibition at 5 µM [8] was 2.33% and the inhibition at 5 µM [9] was 5.04%.
`Cc1cccc(C#Cc2ccccc2)n1.Cl` showed a mean [21] of 3.1043, a Replicate_1 [22] of 2.241 and a Replicate_2 [23] of 3.968.
`CCCOC(=O)c1c(-c2ccccc2)nc(CC)c(C(=O)SCC)c1CCC` [MRS 1523] was tested, and the mean [21] was 2.972, the Replicate_1 [22] was 3.943 and the Replicate_2 [23] was 2.002.
Work on `COCc1nc2c([nH]1)c(=O)n(C)c(=O)n2CC(C)C` yielded a mean (sheet LOPAC_screen_w_protease, LOPAC1280 primary screen with protease, 5 µM compound, mean of the two replicates) of 5.36, a Replicate_1 (sheet LOPAC_screen_w_protease, LOPAC1280 primary screen with protease, 5 µM compound, replicate 1) of 6.304 and a Replicate_2 (sheet LOPAC_screen_w_protease, LOPAC1280 primary screen with protease, 5 µM compound, replicate 2) of 4.4152.
In the case of `O=C(O)[C@@H]1[C@H](C(=O)O)[C@H]2CC[C@@H]1O2` [Endothall], the inhibition at 5 µM (read-out: Replicate_1) was 3.42%, the inhibition at 5 µM (read-out: Replicate_2) was -0.805% and the inhibition at 5 µM (read-out: mean) was 1.31%.
With `NC12CC3CC(CC(C3)C1)C2` [Amantadine hydrochloride] the inhibition at 5 µM (sheet LOPAC_screen_w_protease, primary screen with protease, mean of two replicates, read-out: mean) was 2.48%, the inhibition at 5 µM (sheet LOPAC_screen_w_protease, primary screen with protease, replicate 1, read-out: Replicate_1) was 1.91% and the inhibition at 5 µM (sheet LOPAC_screen_w_protease, primary screen with protease, replicate 2, read-out: Replicate_2) was 3.05%.
Molecule `CC(=O)OCC1=C(C(=O)[O-])N2C(=O)[C@@H](NC(=O)CCC[C@@H](N)C(=O)[O-])[C@H]2SC1.[Zn+2]` [Cephalosporin C zinc salt] has a mean [4] of 0.2554, a Replicate_1 [5] of 0.7755 and a Replicate_2 [6] of -0.2647.
`c1ccc2cc(-c3ncc[nH]3)ccc2c1` [Benazoline oxalate] gave an inhibition at 5 µM [7] of 3.39%, an inhibition at 5 µM [8] of 1.95% and an inhibition at 5 µM [9] of 4.83%.
With `CC(=O)[C@H]1CC[C@H]2[C@@H]3CCC4=CC(=O)CC[C@]4(C)[C@H]3CC[C@]12C` [Progesterone] the inhibition at 5 µM (sheet LOPAC_screen_w_protease, LOPAC1280 primary screen with protease, 5 µM compound, mean of the two replicates, read-out: mean) was 5.55%, the inhibition at 5 µM (sheet LOPAC_screen_w_protease, LOPAC1280 primary screen with protease, 5 µM compound, replicate 1, read-out: Replicate_1) was 3.58% and the inhibition at 5 µM (sheet LOPAC_screen_w_protease, LOPAC1280 primary screen with protease, 5 µM compound, replicate 2, read-out: Replicate_2) was 7.53%.
With `c1ccc2c(c1)OCC(C1=NCCN1)O2` (centres unmarked) [Idazoxan hydrochloride] the inhibition at 5 µM [10] was 1.08% and the inhibition at 5 µM [11] was 2.66%.
For `Br.CN=c1nc(-c2ccccc2)n(-c2ccccc2)s1` [SCH-202676 hydrobromide], the “mean (LOPAC screen with protease)” value [18] was 100.647, the “Replicate_1 (LOPAC screen with protease)” value [19] was 100.647 and the “Replicate_2 (LOPAC screen with protease)” value [20] was 100.647.
For `CCCN1CCC[C@H](c2cccc(O)c2)C1.Cl` [R(+)-3PPP hydrochloride], the mean (sheet LOPAC_screen_w_protease, LOPAC1280 at 5 µM, mean of two replicates) was 0.9121, the Replicate_1 (sheet LOPAC_screen_w_protease, LOPAC1280 at 5 µM, replicate 1) was 1.657 and the Replicate_2 (sheet LOPAC_screen_w_protease, LOPAC1280 at 5 µM, replicate 2) was 0.167.
Molecule `C=CCN1CC[C@]23c4c5ccc(O)c4O[C@H]2/C(=N/NC(=O)c2ccccc2)CC[C@@]3(O)[C@H]1C5` [Naloxone benzoylhydrazone] has an inhibition at 5 µM (read-out: Replicate_1) of 2.85%, an inhibition at 5 µM (read-out: Replicate_2) of 4.95% and an inhibition at 5 µM (read-out: mean) of 3.9%.
With `O=C(CCCN1CCC(O)(c2ccc(Cl)cc2)CC1)c1ccc(F)cc1` [Haloperidol] the inhibition at 5 µM (LOPAC1280 primary screen with protease, 5 µM compound, replicate 1, read-out: Replicate_1 (LOPAC_screen_w_protease)) was 2.99%, the inhibition at 5 µM (LOPAC1280 primary screen with protease, 5 µM compound, replicate 2, read-out: Replicate_2 (LOPAC_screen_w_protease)) was 0.623% and the “mean (LOPAC_screen_w_protease)” value [24] was 1.809.
`Cl.O=S(=O)(c1cccc2c(I)cccc12)N1CCCNCC1` [ML-7] gave a Replicate_1 of 2.299, a Replicate_2 of 4.928 and a mean of 3.614.
`C[N+]1(C)CCN(c2ccccc2)CC1.[I-]` was tested, and the “mean (LOPAC screen with protease)” value [18] was 7.007, the “Replicate_1 (LOPAC screen with protease)” value [19] was 5.351 and the “Replicate_2 (LOPAC screen with protease)” value [20] was 8.6627.
For `N#CC(=Cc1c[nH]c2ccccc12)C(=O)c1ccc(O)c(O)c1` [Tyrphostin AG 808], the “mean (LOPAC_screen_w_protease)” value [24] was 1.999, the “Replicate_1 (LOPAC_screen_w_protease)” value [25] was 2.979 and the “Replicate_2 (LOPAC_screen_w_protease)” value [26] was 1.0189.
In the case of `N.N.N.N.N.N.N.N.N.N.N.N.N.N.[Cl-].[Cl-].[Cl-].[Cl-].[Cl-].[Cl-].[O-2].[O-2].[Ru+3].[Ru+3].[Ru+4]` [Ruthenium red], the “mean (LOPAC_screen_w_protease)” value [24] was 1.824, the “Replicate_1 (LOPAC_screen_w_protease)” value [25] was 2.607 and the “Replicate_2 (LOPAC_screen_w_protease)” value [26] was 1.042.
Work on `CCS(=O)(=O)Nc1cccc(C(=C2CCCCC2)c2c[nH]cn2)c1` [A-315456] yielded a mean (sheet LOPAC_screen_w_protease, LOPAC1280 primary screen at 5 µM, with protease, mean of the two replicates) of 0.823, a Replicate_1 [27] of 1.277 and a Replicate_2 [28] of 0.3687.
For `Cc1cc(N)c2ccccc2[n+]1CCCCCCCCCC[n+]1c(C)cc(N)c2ccccc21` [Dequalinium dichloride], the inhibition at 5 µM (read-out: Replicate_1) was 2.94%, the inhibition at 5 µM (read-out: Replicate_2) was 1.41% and the inhibition at 5 µM (read-out: mean) was 2.17%.
For `CC#CCOC(=O)c1c(C)nc2sc3c(c2c1N)CCC(O)C3` (centres unmarked) [SB 205384], the mean (sheet LOPAC_screen_w_protease, LOPAC1280 primary screen at 5 µM, with protease, mean of two replicates) was -1.612, the Replicate_1 [27] was 2.126 and the Replicate_2 [28] was -5.349.
For `C=CC(N)CCC(=O)O` (racemic) [(±)-gamma-Vinyl GABA], the mean [4] was -0.2228, the Replicate_1 [5] was -0.2758 and the Replicate_2 [6] was -0.1698.
